# Experimental data from patent US10220005B2 (GW Research Limited, priority 2012, dated 2019).
# Experiments:
# [1] = system: piglet model of HI; assay: Piglet model of HI, Nissl staining of brain slices (Example 1); format: in vivo; conditions: piglets; for effect of co-administered antagonist on the CBD-induced reduction of neuronal death: given with CBD 1 mg/kg i.v., AM630 1 mg/kg, WAY100635 0.1 mg/kg, caffeine 10 mg/kg
# Procedure: (§1) A piglet model of HI was used as described in (Alvarez et al. 2008). Briefly, an HI insult is induced in anesthetized 1-3 day-old piglets by occluding both carotid arteries and decreasing inspired oxygen from 21 to 10% for 30 min.
# (§2) Thirty minutes after the recovery of HI the test compound was administered via the i.v. route.
# (§3) At the end of the experiment, piglets are euthanized and the brain removed; one hemisphere was immediately frozen and stored at −80 ° C. whereas the other one was preserved in 4% paraformaldehide. A sample of frozen brain was obtained to perform a proton magnetic resonance spectroscopy (H+-MRS). Similarly managed piglets but without HI served as controls.
# [2] = system: interleukin 1; assay: Piglet model of HI, interleukin 1 in brain tissue by microarrays; format: in vivo; conditions: piglets
# Procedure: as §1, §2, §3
# [3] = system: rat model of HI; assay: Rat model of HI, magnetic resonance imaging of brain lesion; format: in vivo, Wistar rats; conditions: rats, CBD 1 mg/kg s.c. single dose, one month later (P37)
# Procedure: (§4) A rat model of HI was used as described by (Fernandez-Lopez et al., 2007). Briefly, an HI insult is induced in 7-10 day-old Wistar rats by electro-coagulating the left carotid artery under anaesthesia following by the exposure to 10% oxygen for 120 min.
# The pups were then returned to their dams.
# Rats were then euthanized and the brain removed and stored in 4% paraforlmadehide. Magnetic resonance imaging was performed on the brains to evaluate the damaged area. In some rats, MRI was performed 7 days after HI.
# [4] = system: rat model of HI; assay: Rat model of HI, neurobehavioral tests (rotarod, cylinder, novel object); format: in vivo, Wistar rats; conditions: rats, CBD 1 mg/kg s.c. single dose, tests at day 35
# Procedure: as §4
# Sham operated pups without hypoxia served as controls, and were treated with vehicle or CBD as indicated. The pups were then returned to their dams.
# At day 35 rats underwent neurobehavioral tests: rotarod (to test coordination), cylinder (to test unilateral deficits) and novel object preference (to test memory impairments).
smiles,measurement,setting,value
COc1ccccc1N1CCN(CCN(C(=O)C2CCCCC2)c2ccccn2)CC1 [WAY],effect of co-administered antagonist on the CBD-induced reduction of neuronal death,[1],blunted
"C=C(C)[C@@H]1CCC(C)=C[C@H]1c1c(O)cc(CCCCC)cc1O [CBD, cannabidiol]",production of IL-1 (concentration of interleukin 1 in brain tissue),"[2]; CBD 1 mg/kg i.v., 6 h after HI, microarrays",reduces
same,percentage of necrotic tissue in both the cortex and the hippocampus,"[1]; CBD 1 mg/kg i.v. 30 min after HI, brain tissue 6 h after HI",reduces
same,volume of lesion (MRI; printed as brain volume),[3],significantly reduced
same,coordination (RotaRod),[4],normalization
same,memory (novel object recognition),[4],normalization
same,motor performance (cylinder rear test),[4],normalization
COc1ccc(C(=O)c2c(C)n(CCN3CCOCC3)c3cc(I)ccc23)cc1 [AM],effect of co-administered antagonist on the CBD reduction of IL-1 production,"[2]; given with CBD 1 mg/kg i.v., AM630 1 mg/kg, WAY100635 0.1 mg/kg, caffeine 10 mg/kg",blunted
same,effect of co-administered antagonist on the CBD-induced reduction of neuronal death,[1],blunted
"Cn1c(=O)c2c(ncn2C)n(C)c1=O [caffeine, Caffeine]",effect of co-administered antagonist on the CBD-induced reduction of neuronal death,[1],not by caffeine
